Experimental data from US8536168B2 (Novartis AG, priority 2007, dated 2013).
pIC50: −log10 of the molar value. Where two headings read alike, the source gives them in different places.

What was measured:
[1] = target: human Smoothened receptor (Homo sapiens, UniProt Q99835); experiment: Smo binding assay, displacement of radio-labeled smoothened agonist, filter binding format (human); settings: displacement of small molecule agonist of Smoothened, read-out: Human Smo bdg., IC50
Source text: A Smo binding assay was developed using radio-labeled smoothened agonist for compound competition. Table 9 lists the IC50 for displacement of a small molecule agonist of Smoothened determined in a filter binding format for the mouse and human Smoothened receptor.

[2] = target: mouse Smoothened receptor (Mus musculus, UniProt P56726); experiment: Smo binding assay, displacement of radio-labeled smoothened agonist, filter binding format (mouse); settings: displacement of small molecule agonist of Smoothened, read-out: Mouse Smo bdg., IC50
Sequence of mouse Smoothened receptor (P56726 33-793): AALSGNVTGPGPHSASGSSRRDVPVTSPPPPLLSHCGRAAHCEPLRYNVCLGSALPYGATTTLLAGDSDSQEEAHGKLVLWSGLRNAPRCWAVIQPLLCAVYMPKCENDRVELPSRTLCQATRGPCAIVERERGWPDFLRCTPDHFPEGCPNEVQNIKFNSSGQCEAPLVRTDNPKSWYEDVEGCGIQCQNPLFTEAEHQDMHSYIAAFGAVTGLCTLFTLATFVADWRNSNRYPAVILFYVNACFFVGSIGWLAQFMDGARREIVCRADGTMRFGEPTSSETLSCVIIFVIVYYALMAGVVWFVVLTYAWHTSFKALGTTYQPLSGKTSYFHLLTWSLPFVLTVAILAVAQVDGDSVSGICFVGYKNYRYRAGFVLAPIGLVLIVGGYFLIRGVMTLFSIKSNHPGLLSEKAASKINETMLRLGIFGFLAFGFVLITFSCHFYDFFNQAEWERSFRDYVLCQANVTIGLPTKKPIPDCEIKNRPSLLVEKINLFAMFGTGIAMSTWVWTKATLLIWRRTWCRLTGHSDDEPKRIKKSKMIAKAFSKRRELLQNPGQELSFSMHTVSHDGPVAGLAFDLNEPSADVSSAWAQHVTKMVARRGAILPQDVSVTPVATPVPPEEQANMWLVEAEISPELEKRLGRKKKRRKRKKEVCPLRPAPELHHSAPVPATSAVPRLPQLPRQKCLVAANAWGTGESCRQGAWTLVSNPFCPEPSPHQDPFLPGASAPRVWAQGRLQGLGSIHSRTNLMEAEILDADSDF
Source text: A Smo binding assay was developed using radio-labeled smoothened agonist for compound competition.

Gli-luciferase activity = experiment: Reporter gene assay (RGA) in TMHh12 cells, antagonism of Gli-luciferase activity in the presence of a Smo agonist; format: cell-based
Method: Activity of the compounds was evaluated using a reporter gene assay (RGA) in TMHh12 cells.

[3] = 25 nM small molecule Smo agonist, read-out: RGA (25 nM Smo agonist) IC50
[4] = read-out: RGA (1 nM Smo agonist) IC50, 1 nM small molecule Smo agonist

Sequence of human Smoothened receptor (Q99835 28-787): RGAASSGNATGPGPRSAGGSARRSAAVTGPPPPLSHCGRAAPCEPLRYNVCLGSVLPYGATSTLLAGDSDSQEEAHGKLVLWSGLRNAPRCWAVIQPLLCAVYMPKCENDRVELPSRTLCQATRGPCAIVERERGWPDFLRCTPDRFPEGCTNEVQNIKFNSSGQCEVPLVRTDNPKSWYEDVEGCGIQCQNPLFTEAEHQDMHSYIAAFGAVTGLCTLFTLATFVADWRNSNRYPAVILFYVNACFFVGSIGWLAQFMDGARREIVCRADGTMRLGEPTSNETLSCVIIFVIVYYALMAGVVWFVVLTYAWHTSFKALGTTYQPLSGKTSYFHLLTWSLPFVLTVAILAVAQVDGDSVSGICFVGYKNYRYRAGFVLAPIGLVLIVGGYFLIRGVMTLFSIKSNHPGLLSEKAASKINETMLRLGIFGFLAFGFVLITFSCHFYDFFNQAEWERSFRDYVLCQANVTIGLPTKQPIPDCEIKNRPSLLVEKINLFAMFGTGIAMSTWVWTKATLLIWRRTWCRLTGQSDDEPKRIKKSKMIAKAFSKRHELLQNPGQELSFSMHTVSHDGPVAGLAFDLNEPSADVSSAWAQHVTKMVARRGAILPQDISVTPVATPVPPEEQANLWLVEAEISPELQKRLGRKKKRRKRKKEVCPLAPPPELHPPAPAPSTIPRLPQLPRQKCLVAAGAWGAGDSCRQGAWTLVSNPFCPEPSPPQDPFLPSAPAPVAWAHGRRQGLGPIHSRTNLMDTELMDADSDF

| SMILES | pIC50 [1] | pIC50 [2] | pIC50 (Gli-luciferase activity; [3]) | pIC50 (Gli-luciferase activity; [4]) |
| --- | --- | --- | --- | --- |
| CC(C)(O)c1ccc(C2CCN(c3nnc(Cc4ccccc4)c4ccccc34)CC2)cc1 [Example 124] | 6.00 to 7.00 | 6.00 to 7.00 | 5.00 to 6.00 | > 7.00 |
| N#Cc1ccc(C2CCN(c3nnc(Cc4ccccc4)c4ccccc34)CC2)cc1 [Example 116] | 5.00 to 6.00 | 5.00 to 6.00 | 5.00 to 6.00 | 5.00 to 6.00 |
| N#Cc1ccc(N2CCN(c3cnc(Cc4cccc(Cl)c4)c4ccccc34)CC2)nc1 [Example 81] | 4.40 to 5.00 | 5.00 to 6.00 | 4.40 to 5.00 | 5.00 to 6.00 |
| COC(=O)c1ccc(C2CCN(c3nnc(Cc4ccccc4)c4ccccc34)CC2)cc1 [Example 115] | 5.00 to 6.00 | 5.00 to 6.00 | 5.00 to 6.00 | 5.00 to 6.00 |
| N#Cc1ccc(N2CCN(c3nnc(Cc4cccc(C(F)(F)F)c4)c4ccccc34)CC2)nc1 [Example 56, 6-{4-[4-(3-Trifluoromethyl-benzyl)-phthalazin-1-yl]-piperazin-1-yl}-nicotinonitrile] | 6.00 to 7.00 | > 7.00 | 5.00 to 6.00 | > 7.00 |
| N#Cc1ccc(N2CCN(c3nnc(Cc4ccc(Cl)c(C(F)(F)F)c4)c4ccccc34)CC2)nc1 [Example 178] | 6.00 to 7.00 | 6.00 to 7.00 | 6.00 to 7.00 | 6.00 to 7.00 |
| O=C(O)c1ccc(N2CCN(c3nnc(Cc4ccccc4)c4ccccc34)CC2)cc1 [Example 16] | 5.00 to 6.00 | 5.00 to 6.00 | 5.00 to 6.00 | 5.00 to 6.00 |
| C[C@@H]1CN(c2nnc(Cc3ccccc3)c3ccccc23)[C@@H](C)CN1c1ccc(C#N)cn1 [Example 119] | 6.00 to 7.00 | 6.00 to 7.00 | 5.00 to 6.00 | 6.00 to 7.00 |
| CC(c1ccccc1)c1nnc(N2CCN(c3ccc(C#N)cn3)CC2)c2ccccc12 (stereo not shown) [Example 68] | 5.00 to 6.00 | 5.00 to 6.00 | 5.00 to 6.00 | 6.00 to 7.00 |
| CC(C)CC(=O)NCc1ccc(N2CCN(c3nnc(Cc4ccccc4)c4ccccc34)CC2)nc1 [Example 210] | > 7.00 | > 7.00 | > 7.00 | > 7.00 |
| N#Cc1ccc(N2CCN(c3nnc(Cc4ccc(Cl)cc4Cl)c4ccccc34)CC2)nc1 [Example 177] | > 7.00 | > 7.00 | 6.00 to 7.00 | 6.00 to 7.00 |
| N#Cc1ccc(N2CCC(c3cn(Cc4ccccc4)c4ccccc34)CC2)nc1 [Example 100] | 6.00 to 7.00 | 6.00 to 7.00 | 5.00 to 6.00 | 6.00 to 7.00 |
| Cc1cc(Cc2ccccc2)nnc1N1CCN(c2ccc(C#N)cn2)CC1 [Example 86] | 5.00 to 6.00 | 5.00 to 6.00 | 5.00 to 6.00 | 6.00 to 7.00 |

Further lines, results first:

| pIC50 [1] | pIC50 [2] | pIC50 (Gli-luciferase activity; [3]) | pIC50 (Gli-luciferase activity; [4]) | SMILES |
| --- | --- | --- | --- | --- |
| > 7.00 | > 7.00 | > 7.00 | > 7.00 | COCC(=O)NC(C)(C)c1ccc(N2CCN(c3nnc(Cc4ccccc4)c4ccccc34)CC2)nc1 [Example 121, N-(2-(6-(4-(4-Benzylphthalazin-1-yl)piperazin-1-yl)pyridin-3-yl)propan-2-yl)-2-methoxyacetamide] |
| > 7.00 | > 7.00 | > 7.00 | > 7.00 | c1ccc(Cc2nnc(N3CCN(c4ccc(CN(C5COC5)C5COC5)cn4)CC3)c3ccccc23)cc1 [Example 231] |
| > 7.00 | > 7.00 | 6.00 to 7.00 | 6.00 to 7.00 | O=C1CCCN1c1ccc(N2CCN(c3nnc(Cc4ccccc4)c4ccccc34)CC2)nc1 [Example 131] |
| > 7.00 | > 7.00 | > 7.00 | > 7.00 | CC(C)(O)c1ccc(N2CCN(c3nnc(Cc4ccc(F)cc4F)c4ccccc34)CC2)nc1 [Example 193] |
| > 7.00 | > 7.00 | > 7.00 | > 7.00 | C[C@@H]1CN(c2nnc(Cc3ccccc3)c3ccccc23)CCN1c1cnc(C(C)(C)O)cn1 [Example 156] |
| > 7.00 | > 7.00 | 6.00 to 7.00 | > 7.00 | COC(=O)c1cnc(N2CCN(c3nnc(Cc4ccccc4)c4ccccc34)CC2)cn1 [Example 138] |
